The values below come from patent US9676714B2, “Sulfonylindole derivatives and method for preparing the same” (Daewoong Pharmaceutical Co., Ltd., priority 2013, dated 2017).

Counter-ions that a name gives are not always drawn.

The target of this test is T1, proton pump (H+/K+-ATPase) (Sus scrofa, UniProt P19156).
T1 construct: Gastric vesicles were prepared from hog stomach via centrifugal separation; from tissue; host or cells: hog stomach (gastric vesicles, method of Rabon et al. 1988)
T1 sequence (P19156 whole entry): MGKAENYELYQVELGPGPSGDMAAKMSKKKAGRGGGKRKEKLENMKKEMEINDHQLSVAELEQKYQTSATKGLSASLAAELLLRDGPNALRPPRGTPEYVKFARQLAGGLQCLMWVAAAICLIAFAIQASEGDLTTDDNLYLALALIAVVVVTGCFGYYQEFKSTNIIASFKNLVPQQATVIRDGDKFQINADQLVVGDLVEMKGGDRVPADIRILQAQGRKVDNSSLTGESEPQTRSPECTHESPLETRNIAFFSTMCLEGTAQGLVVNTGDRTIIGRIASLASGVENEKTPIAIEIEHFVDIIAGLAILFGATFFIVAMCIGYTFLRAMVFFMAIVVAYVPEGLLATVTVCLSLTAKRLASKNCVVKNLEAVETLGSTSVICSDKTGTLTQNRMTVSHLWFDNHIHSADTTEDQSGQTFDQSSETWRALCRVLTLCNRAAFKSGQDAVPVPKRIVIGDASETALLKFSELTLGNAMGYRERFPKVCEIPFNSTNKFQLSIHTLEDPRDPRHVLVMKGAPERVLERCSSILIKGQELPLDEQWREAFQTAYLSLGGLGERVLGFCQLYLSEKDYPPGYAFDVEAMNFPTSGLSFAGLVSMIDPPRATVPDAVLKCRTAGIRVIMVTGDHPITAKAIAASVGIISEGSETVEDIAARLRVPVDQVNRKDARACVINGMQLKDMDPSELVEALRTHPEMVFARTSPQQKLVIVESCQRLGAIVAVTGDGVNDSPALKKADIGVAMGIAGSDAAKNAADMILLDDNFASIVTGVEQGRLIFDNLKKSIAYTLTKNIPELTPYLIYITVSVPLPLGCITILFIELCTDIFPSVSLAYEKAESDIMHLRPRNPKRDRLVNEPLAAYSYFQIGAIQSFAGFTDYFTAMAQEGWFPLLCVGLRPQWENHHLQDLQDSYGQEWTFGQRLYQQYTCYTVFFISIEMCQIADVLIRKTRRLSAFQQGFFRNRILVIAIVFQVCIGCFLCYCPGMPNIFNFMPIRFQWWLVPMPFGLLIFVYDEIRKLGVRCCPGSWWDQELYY
T1 sequence (P18434 whole entry partner): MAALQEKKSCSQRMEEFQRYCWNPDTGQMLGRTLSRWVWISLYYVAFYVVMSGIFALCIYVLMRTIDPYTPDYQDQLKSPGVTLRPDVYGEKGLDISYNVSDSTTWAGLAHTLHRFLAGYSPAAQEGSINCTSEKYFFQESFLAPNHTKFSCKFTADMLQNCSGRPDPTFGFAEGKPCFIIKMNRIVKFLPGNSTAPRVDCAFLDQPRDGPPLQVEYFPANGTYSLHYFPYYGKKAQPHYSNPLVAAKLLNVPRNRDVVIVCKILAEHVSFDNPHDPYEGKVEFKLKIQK
The test can be described thus: Measurement of inhibitory effects on proton pump (H+/K+-ATPase) activities. The format is biochemical. Conditions: hog gastric vesicles, K+-specific H+/K+-ATPase activity, Tris-HCl buffer pH 7.4, 37° C. for 40 minutes, malachite green Pi readout. The method, then:
1) Preparation of Gastric Vesicles
Gastric vesicles were prepared from hog stomach via centrifugal separation (Edd C. Rabon et al., Preparation of Gastric H^+,K^+-ATPase, Methods in enzymology, vol. 157 Academic Press Inc., (1988), pp. 649-654). The protein contents of the thus prepared gastric vesicles were quantitated by Bicinchoninic Acid (BCA) kit.
2) Measurement of Inhibitory Effects on Proton Pump (H^+/K^+-ATPase) Activities
The inhibitory effects of the compounds of the present invention against proton pump activities were measured using a 96-well plate. In this assay, the K^+-specific H^+/K^+-ATPase activities were calculated based on the difference between the H^+/K^+-ATPase activity in the presence of K^+ and that in the absence of K. In the 96-well plate, 0.5% dimethyl sulfoxide (DMSO) in buffer was added to the negative and positive control groups, and the diluted compounds of the present invention were added to the test groups. All assays were performed in a reaction volume of 100 μl at room temperature. The reaction buffer solution (60 mmol/l Tris-HCl buffer, pH 7.4) including the hog gastric vesicles was added with DMSO and the compounds at various concentrations, and then further added with 10 μl of 10 mmol/1 adenosine triphosphate Tris buffer solution (60 mmol/l Tris-HCl buffer, pH 7.4) to initiate an enzyme reaction. […] The amount of monophosphate (Pi) in the reaction was measured at 570 nm using a micro plate reader (FLUOstar Omega, BMG LABTECH). The inhibition rates (%) were determined from the activity values of control groups and those of test compounds at various concentrations, and the […] of the test compounds were calculated based on the respective inhibition value (%) using the Logistic 4-parameter function of Sigmaplot 8.0 program.
Regarding `CCc1cc(C#N)ccc1Nc1ccc2c(CNC)cn(S(=O)(=O)c3cccnc3)c2c1` [Example 37, 3-ethyl-4-((3-((methylamino)methyl)-1-(pyridin-3-ylsulfonyl)-1H-indol-6-yl)amino)benzonitrile hydrochloride], the half-inhibitory concentration (IC50) (usually the concentration needed to halve the response being measured) came out at 500 nM.
The result for `CNCc1cn(S(=O)(=O)c2cccnc2)c2cc(Nc3ccc(C#N)cc3F)ccc12` [Example 38, 3-fluoro-4-((3-((methylamino)methyl)-1-(pyridin-3-ylsulfonyl)-1H-indol-6-yl)amino)benzonitrile hydrochloride] reads 2190 nM.
Then `CNCc1cn(S(=O)(=O)c2cccnc2)c2cc(Nc3ccc(C#N)cc3Cl)ccc12` [Example 39, 3-chloro-4-((3-((methylamino)methyl)-1-(pyridin-3-ylsulfonyl)-1H-indol-6-yl)amino)benzonitrile hydrochloride], with 130 nM; and `CNCc1cn(S(=O)(=O)c2cccnc2)c2cc(Nc3ccc(C#N)cc3C(F)(F)F)ccc12` [Example 40, 4-((3-((methylamino)methyl)-1-(pyridin-3-ylsulfonyl)-1H-indol-6-yl)amino)-3-(trifluoromethyl)benzonitrile hydrochloride], with 1830 nM.
The result for `CNCc1cn(S(=O)(=O)c2cccnc2)c2cc(Nc3ccc([N+](=O)[O-])cc3Cl)ccc12` [Example 41, N-(2-chloro-4-nitrophenyl)-3-((methylamino)methyl)-1-(pyridin-3-ylsulfonyl)-1H-indol-6-amine hydrochloride] reads 480 nM; that for `CNCc1cn(S(=O)(=O)c2cccnc2)c2cc(Nc3ccc([N+](=O)[O-])cc3C)ccc12` [Example 42, N-(2-methyl-4-nitrophenyl)-3-((methylamino)methyl)-1-(pyridin-3-ylsulfonyl)-1H-indol-6-amine hydrochloride], 340 nM; that for `CCc1cc(Br)ccc1Nc1ccc2c(CNC)cn(S(=O)(=O)c3cccnc3)c2c1` [Example 43, N-(4-bromo-2-ethylphenyl)-3-((methylamino)methyl)-1-(pyridin-3-ylsulfonyl)-1H-indol-6-amine hydrochloride], 3020 nM.
Turning to `CNCc1cn(S(=O)(=O)c2cccnc2)c2cc(Nc3ccc(Br)cc3Cl)ccc12` [Example 44, N-(4-bromo-2-chlorophenyl)-3-((methylamino)methyl)-1-(pyridin-3-ylsulfonyl)-1H-indol-6-amine hydrochloride], half-maximal inhibition (IC50) was put at 270 nM.
Then `CNCc1cn(S(=O)(=O)c2cccnc2)c2cc(Nc3ccc(Br)cc3C(F)(F)F)ccc12` [Example 45, N-(4-bromo-2-(trifluoromethyl)phenyl)-3-((methylamino)methyl)-1-(pyridin-3-ylsulfonyl)-1H-indol-6-amine hydrochloride], with 1200 nM.
With `CNCc1cn(S(=O)(=O)c2cccnc2)c2cc(Nc3ccc(Br)cc3OC(F)(F)F)ccc12` [Example 46, N-(4-bromo-2-(trifluoromethoxy)phenyl)-3-((methylamino)methyl)-1-(pyridin-3-ylsulfonyl)-1H-indol-6-amine hydrochloride], half-maximal inhibition (IC50) required 2350 nM.
Then `CNCc1cn(S(=O)(=O)c2cccnc2)c2cc(Nc3ccc(O)cc3C)ccc12` [Example 47, 3-methyl-4-((3-((methylamino)methyl)-1-(pyridin-3-ylsulfonyl)-1H-indol-6-yl)amino)phenol hydrochloride], with 840 nM; and `CNCc1cn(S(=O)(=O)c2cccnc2)c2cc(Nc3ccc(OC)cc3C)ccc12` [Example 48, N-(4-methoxy-2-methylphenyl)-3-((methylamino)methyl)-1-(pyridin-3-ylsulfonyl)-1H-indol-6-amine hydrochloride], with 260 nM.
Then `CNCc1cn(S(=O)(=O)c2cccnc2)c2cc(Nc3ccc(OC)cc3F)ccc12` [Example 49, N-(2-fluoro-4-methoxyphenyl)-3-((methylamino)methyl)-1-(pyridin-3-ylsulfonyl)-1H-indol-6-amine hydrochloride], with 320 nM.
